Assay [1] concerns Colo205 tumor cell lines. Briefly: Celltiter Glo growth inhibition assay (cellular Method B). Type of assay: cell-based. The settings on record: Homo sapiens, COLO 205, 72 h, Table 3, Method B Celltiter Glo, 3 days. As for the experimental part:
(§1) Human breast tumor cells (BT474) were cultured in RPMI, (Invitrogen, 22400) containing 10% fetal bovine serum (FBS). Human head and neck tumor cells (HN5) were cultured in low glucose DMEM (Invitrogen, 12320) containing 10% FBS. Human colon tumor cells (Colo205) were cultured in DMEM (Invitrogen, 10564) containing 10% FBS. All cell lines were maintained at 37° C. in a humidified 5% CO2, 95% air incubator. Cells were harvested using trypsin/EDTA, counted using a haemocytometer, and plated in 30 microliters of the appropriate media described above, at the following densities, in a half area, black-walled, 96-well tissue culture plate (Corning 3882): BT474 3,000 cells/well, HN5 500 cells/well and Colo205 cells, 3,000 cells/well. The next day, compounds were diluted in DMEM containing 100 mg/ml gentamicin, from 10 mM stock solutions in DMSO. 30 microliters/well of these dilutions were added to the 30 microliters/well of media currently on the cell plates. Medium containing 0.6% DMSO was added to control wells. The final concentration of DMSO in all wells was 0.3%. Cells were incubated at 37° C., 5% CO2 for 3 days. Cell biomass was estimated using Celltiter Glo (Promega G7571). Briefly, plates were removed from the incubator and allowed to equilibrate to rt for 30 minutes. 60 microliters of Celltiter Glo reagent were added to each well of the treated cells and plates were shaken on an orbital plate shaker for 2 min. Plates were incubated without shaking for 30 more min and read in a luminometer with an integration time of 0.5 seconds per well. Percent inhibition of cell growth was calculated relative to vehicle treated control wells. Concentration of compound that inhibits 50% of vehicle control cell growth (IC50) was interpolated using nonlinear regression (Levenberg-Marquardt) and the equation, y=Vmax*(1−(x/(K+x)))+Y2, where “K” was equal to the IC50.
(In general: Cellular ATP, detected with luciferase, serves as a proxy for viable cell number.)

In assay [2] the test system is BT474 and HN5 tumor cell lines. The assay is described as above. Type of assay: cell-based. The settings on record: Homo sapiens, BT-474, 72 h; Table 2, Method B Celltiter Glo, 3 days; class over BT474 and HN5. The procedure:
as §1

In assay [3] the target is T1, ErbB2 or EGFR.
T1 construct: enzymes purified from a baculovirus expression system
Briefly: ErbB enzyme substrate phosphorylation assay (HTRF), Method B (enzyme pre-incubated with compound 1 hour). In kind it is biochemical. The settings on record: Table 1, enzyme Method B: enzyme mix incubated with compound 1 hour at 20° C., reaction started with substrate mix; class over ErbB2 or EGFR. As for the experimental part: Compounds of the present invention were tested for EGFR, ErbB-2, and ErbB-4 protein tyrosine kinase inhibitory activity in substrate phosphorylation assays using enzymes purified from a baculovirus expression system. Reagent production was conducted essentially as described in Brignola, P. S., et al, (2002) J. Biol. Chem. 277(2): 1576-1585.
The method measures the ability of the isolated enzyme to catalyse the transfer of the gamma-phosphate from ATP onto the tyrosine residue of a biotinylated synthetic peptide referenced “Peptide C” in Brignola, P. S., et al, (2002) J. Biol. Chem. 277(2):1576-1585. The extent of tyrosine phosphorylation was measured using an anti-phosphotyrosine antibody, and quantified by homogenous time-resolved fluorescence (HTRF).
Reactions were performed in black 384-well polystyrene flat-bottom plates in a final volume of 20 μl. Assays were performed by adding 10 μl of each of the following solutions, substrate Mix and enzyme mix: The Substrate mix contained 100 mM 3-[N-morpholino]propanesulfonic acid (MOPS) (pH 7.5), 2 mM MnCl2, 20 μM ATP, 0.01% Tween-20, 0.1 mg/mL (BSA), 0.8 uM peptide substrate, and 1 mM dithiothreitol. The enzyme mix contained 100 mM MOPS (pH7.5); 0.01% Tween-20; 0.1 mg/mL BSA, and either 0.8 nM EGFR, 10 nM ErbB2, or 1 nM ErbB4
During the course of these studies, two separate methods have been used to measure the potency of compounds. In Method A, the substrate mix was added to the compound plates first, then the reaction was started by adding the enzyme mix. In Method B, the enzyme mix was added to the compound plates and the plates were incubated at 20° C. for 1 hour. The reactions were then started by adding the substrate mix.
After initiating the reaction with either method describe above, the reactions were allowed to proceed for 90 minutes at 20° C. The reactions were then terminated by the addition of 20 μl 100 mM EDTA to each well. 40 μl/well of HTRF detection mix were added to the assay plates. The final concentrations of the detection reagents were: 100 mM HEPES (pH7.5), 0.1 mg/mL BSA, 15 nM streptavidin-labeled allophycocyanin (PerkinElmer), and 1 nM europium-labeled anti-phosphotyrosine antibody (PerkinElmer). Assay plates were left unsealed and were counted in a Wallac Multilabel Counter 1420 (PerkinElmer).
Compounds under analysis were dissolved in Me2SO to 1.0 mM and serially diluted 1 to 3 with Me2SO through twelve dilutions. 1 μl of each concentration was transferred to the corresponding well of an assay plate. This creates a final compound concentration range from 0.00027 to 47.6 μM.
The data for dose responses were plotted as % Inhibition calculated with the data reduction formula 100*(1−(U1−C2)/(C1−C2)) versus concentration of compound where U is the unknown value, C1 is the average control value obtained for 4.76% DMSO, and C2 is the average control value obtained for 0.035 M EDTA. Data were fitted with a curve described by: y=((Vmax*x)/(K+x))+Y2 where Vmax is the upper asymptote, Y2 is the Y intercept, and K is the IC50. The results for each compound were recorded as pIC50s, calculated as follows: pIC50=−Log 10(K)

Where only a bound is given, the exact number is not on record here.

What is called IC50 is the midpoint of a concentration-inhibition curve.

On to `O=C(Cc1ccsc1)Nc1cccc(-c2nn3ccccc3c2-c2ccnc(Nc3cccc(-c4cnco4)c3)n2)c1` [Example 17, N-{3-[3-(2-{[3-(1,3-Oxazol-5-yl)phenyl]amino}-4-pyrimidinyl)pyrazolo[1,5-a]pyridin-2-yl]phenyl}-2-(3-thienyl)acetamide], for which the IC50 in assay [1] and in assay [2] was 100 to 1000 nM each time. In addition, the “Activity (Method)” value in assay [3] was “+++ (B) (at least one pIC50 measurement of greater than 7 against either ErbB2 or EGFR)”.

Consider `O=C(Cc1c[nH]c2ccccc12)Nc1cccc(-c2nn3ccccc3c2-c2ccnc(Nc3cccc(-c4cnco4)c3)n2)c1` [Example 18, 2-(1H-Indol-3-yl)-N-{3-[3-(2-{[3-(1,3-oxazol-5-yl)phenyl]amino}-4-pyrimidinyl)pyrazolo[1,5-a]pyridin-2-yl]phenyl}acetamide], for which the IC50 was greater than 1000 nM in assay [1] and 100 to 1000 nM in assay [2]. Further, the “Activity (Method)” value in assay [3] is listed as “++ (B) (at least one pIC50 measurement greater than 6 against either ErbB2 or EGFR but no measurement greater than pIC50 of 7)”.

For `Cc1cc(CC(=O)Nc2cccc(-c3nn4ccccc4c3-c3ccnc(Nc4cccc(-c5cnco5)c4)n3)c2)on1` [Example 19, 2-(3-Methyl-5-isoxazolyl)-N-{3-[3-(2-{[3-(1,3-oxazol-5-yl)phenyl]amino}-4-pyrimidinyl)pyrazolo[1,5-a]pyridin-2-yl]phenyl}acetamide], the IC50 in assay [1] was greater than 1000 nM; in assay [2], 100 to 1000 nM. The “Activity (Method)” value in assay [3] is reported as “+++ (B) (at least one pIC50 measurement of greater than 7 against either ErbB2 or EGFR)”.

For the molecule `O=C(Cc1c(F)cccc1F)Nc1cccc(-c2nn3ccccc3c2-c2ccnc(Nc3cccc(-c4cnco4)c3)n2)c1` [Example 20, 2-(2,6-Difluorophenyl)-N-{3-[3-(2-{[3-(1,3-oxazol-5-yl)phenyl]amino}-4-pyrimidinyl)pyrazolo[1,5-a]pyridin-2-yl]-phenyl}acetamide], the IC50 in assay [1] and in assay [2] was 100 to 1000 nM each time. In addition, the “Activity (Method)” value in assay [3] is recorded as “+++ (B) (at least one pIC50 measurement of greater than 7 against either ErbB2 or EGFR)”.

In the case of `O=C(Cc1cccnc1)Nc1cccc(-c2nn3ccccc3c2-c2ccnc(Nc3cccc(-c4cnco4)c3)n2)c1` [Example 21, N-{3-[3-(2-{[3-(1,3-Oxazol-5-yl)phenyl]amino}-4-pyrimidinyl)pyrazolo[1,5-a]pyridin-2-yl]phenyl}-2-(3-pyridinyl)acetamide], the IC50 in assay [1] was greater than 1000 nM; in assay [2], 100 to 1000 nM. Further, the “Activity (Method)” value in assay [3] is on record as “+++ (B) (at least one pIC50 measurement of greater than 7 against either ErbB2 or EGFR)”.

With `O=C(Cc1ccncc1)Nc1cccc(-c2nn3ccccc3c2-c2ccnc(Nc3cccc(-c4cnco4)c3)n2)c1` [Example 22, N-{3-[3-(2-{[3-(1,3-Oxazol-5-yl)phenyl]amino}-4-pyrimidinyl)pyrazolo[1,5-a]pyridin-2-yl]phenyl}-2-(4-pyridinyl)acetamide], the IC50 in assay [1] and in assay [2] was greater than 1000 nM each time. Moreover, the “Activity (Method)” value in assay [3] is on record as “+++ (B) (at least one pIC50 measurement of greater than 7 against either ErbB2 or EGFR)”.

In the case of `O=C(Cc1ccccn1)Nc1cccc(-c2nn3ccccc3c2-c2ccnc(Nc3cccc(-c4cnco4)c3)n2)c1` [Example 23, N-{3-[3-(2-{[3-(1,3-Oxazol-5-yl)phenyl]amino}-4-pyrimidinyl)pyrazolo[1,5-a]pyridin-2-yl]phenyl}-2-(2-pyridinyl)acetamide], the IC50 in assay [1] and in assay [2] was 100 to 1000 nM in each case. The “Activity (Method)” value in assay [3] was “+++ (B) (at least one pIC50 measurement of greater than 7 against either ErbB2 or EGFR)”.

With `CN1CCc2ccc(Nc3nccc(-c4c(-c5cccc(NC(=O)Cc6cccs6)c5)nn5cccc(F)c45)n3)cc2C1` [Example 30, N-[3-(4-fluoro-3-{2-[(2-methyl-1,2,3,4-tetrahydro-7-isoquinolinyl)amino]-4-pyrimidinyl}pyrazolo[1,5-a]pyridin-2-yl)phenyl]-2-(2-thienyl)acetamide], the IC50 in assay [1] and in assay [2] was greater than 1000 nM each time. For the same molecule, the “Activity (Method)” value in assay [3] is recorded as “++ (B) (at least one pIC50 measurement greater than 6 against either ErbB2 or EGFR but no measurement greater than pIC50 of 7)”.

With `CN(C)CCOc1cccc(Nc2nccc(-c3c(-c4cccc(NC(=O)Cc5cccs5)c4)nn4cccc(F)c34)n2)c1` [Example 31, N-[3-(3-{2-[(3-{[2-(dimethylamino)ethyl]oxy}phenyl)amino]-4-pyrimidinyl}-4-fluoropyrazolo[1,5-a]pyridin-2-yl)phenyl]-2-(2-thienyl)acetamide], the IC50 in assay [1] and in assay [2] was greater than 1000 nM in each case. Also, the “Activity (Method)” value in assay [3] was “++ (B) (at least one pIC50 measurement greater than 6 against either ErbB2 or EGFR but no measurement greater than pIC50 of 7)”.

For `O=C(Cc1cccs1)Nc1cccc(-c2nn3cccc(F)c3c2-c2ccnc(Nc3cccc(F)c3)n2)c1` [Example 32, N-[3-(4-fluoro-3-{2-[(3-fluorophenyl)amino]-4-pyrimidinyl}pyrazolo[1,5-a]pyridin-2-yl)phenyl]-2-(2-thienyl)acetamide], the concentration for half-maximal inhibition (IC50) in assay [1] and in assay [2] was greater than 1000 nM in each case. Further, in assay [3], the “Activity (Method)” value was “+ (B) (no pIC50 measurement greater than 6 against either ErbB2 or EGFR)”.

For the molecule `O=C(Cc1cccs1)Nc1cccc(-c2nn3cc(F)ccc3c2-c2ccnc(Nc3cccc(F)c3)n2)c1` [Example 33, N-[3-(6-fluoro-3-{2-[(3-fluorophenyl)amino]-4-pyrimidinyl}pyrazolo[1,5-a]pyridin-2-yl)phenyl]-2-(2-thienyl)acetamide], the half-inhibitory concentration (IC50) in assay [1] and in assay [2] was greater than 1000 nM in each case. Moreover, the “Activity (Method)” value in assay [3] is given as “++ (B) (at least one pIC50 measurement greater than 6 against either ErbB2 or EGFR but no measurement greater than pIC50 of 7)”.

For the molecule `CN(C)CCOc1cccc(Nc2nccc(-c3c(-c4cccc(NC(=O)Cc5cccs5)c4)nn4cc(F)ccc34)n2)c1` [Example 34, N-[3-(3-{2-[(3-{[2-(dimethylamino)ethyl]oxy}phenyl)amino]-4-pyrimidinyl}-6-fluoropyrazolo[1,5-a]pyridin-2-yl)phenyl]-2-(2-thienyl)acetamide], the IC50 in assay [1] and in assay [2] was 100 to 1000 nM each time. For the same molecule, in assay [3], the “Activity (Method)” value was “+++ (B) (at least one pIC50 measurement of greater than 7 against either ErbB2 or EGFR)”.

The record behind these values is patent US7807673B2, “2-pyrimidinyl pyrazolopyridine ErbB kinase inhibitors” (GlaxoSmithKline LLC, priority 2005, dated 2010).
